Laboratory results taken from paper PMC9854712 (Antioxidants, 2023).

Assays:
MDA-MB-231 cells = assay: MTT cell viability assay, MDA-MB-231; format: cell-based; details: Homo sapiens, MDA-MB-231, 48 h, read-out: Cell growth % at 10 µM, MDA-MB-231
Procedure: (§1) The cell lines were obtained from the American Type Culture Collection (ATCC). Five tumor cell lines (MDA-MB-231, MCF-7, HCT116, HTB-54, and DU-145) and two non-tumorigenic cells (184B5 and BEAS-2B) were grown in RPMI 1640 medium (Gibco), and the HT-29 tumor cell line was grown in McCoy’s medium. Both mediums were supplemented with 10% fetal bovine serum (FBS; Gibco) and 1% antibiotics (10.00 units/mL penicillin and 10.00 μg/mL streptomycin; Gibco). Cells were preserved in tissue culture flasks at 37 °C and 5% CO2. The culture medium was replaced every three days.
(§2) The effect of each compound on cell viability was tested using the MTT assay. […] Selected compounds were then tested at seven different concentrations (0.5–100 μM) in MCF-7, HCT116, HT-29, HTB-54, 184B5 and BEAS-2B cells. Cells were seeded at 10^4 per well onto flat-bottomed 96-well culture plates. They were treated with either DMSO or increasing concentration of the corresponding compound for 48 h. Then, they were incubated with 20 μL of 3-(4,5-dimethylthiazol-2-yl)-2,5-diphenyltetrazolium bromide (MTT) (2 mg /mL stock; Aldrich) for 2,5 h and analyzed for their ability to generate a purple formazan dye. These formazan crystals were dissolved in 50 μL of DMSO. The absorbance was measured at a wavelength of 550 nm and the ratio of viable cells was calculated.
(§3) Results are expressed as cell viability % at 10 μM. Selectivity index were calculated as the ratio of the IC50 values determined for the non-malignant and the tumor cells in breast (IC50 (184B5)/IC50 (MCF-7)) and lung (IC50 (BEAS-2B)/IC50 (HTB-54)) cell lines. Data were obtained from at least three independent experiments performed in triplicates.

HTB-54 cells = assay: MTT cell viability assay, HTB-54; format: cell-based; details: HTB-54; 10 µM, 48 h, MTT; read-out: Cell growth % at 10 µM, HTB-54
Procedure: as §1, §2, §3

AChE = molecular target: T1, AChE (Rattus norvegicus, UniProt P37136); assay: AChE inhibition by Ellman's method (rat frontal cortex homogenate); format: biochemical; details: at 10^−6 M, Ellman's method
T1 construct: from tissue; host or cells: frontal cortex of male Wistar rats (crude homogenate)
T1 sequence (P37136 32-614): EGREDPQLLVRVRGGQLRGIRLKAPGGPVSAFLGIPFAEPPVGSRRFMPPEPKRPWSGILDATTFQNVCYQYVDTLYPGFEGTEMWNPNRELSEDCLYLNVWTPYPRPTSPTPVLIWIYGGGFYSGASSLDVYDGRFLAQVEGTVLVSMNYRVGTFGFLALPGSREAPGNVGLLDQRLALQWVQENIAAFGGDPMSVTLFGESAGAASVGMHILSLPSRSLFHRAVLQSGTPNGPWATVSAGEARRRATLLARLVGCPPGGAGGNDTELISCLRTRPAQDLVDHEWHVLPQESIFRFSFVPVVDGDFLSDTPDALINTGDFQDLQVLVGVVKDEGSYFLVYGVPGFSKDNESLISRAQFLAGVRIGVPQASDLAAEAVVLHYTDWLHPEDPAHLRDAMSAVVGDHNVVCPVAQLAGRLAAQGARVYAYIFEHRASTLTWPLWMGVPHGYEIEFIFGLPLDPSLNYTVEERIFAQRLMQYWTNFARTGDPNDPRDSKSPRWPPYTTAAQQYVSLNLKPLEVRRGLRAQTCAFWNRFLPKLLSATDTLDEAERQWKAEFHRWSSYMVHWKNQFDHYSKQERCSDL
Procedure: Frontal cortex tissue obtained from male Wistar rats was homogenized in 39 volumes of 75 mM sodium phosphate buffer (pH 7.4). A mixture of 260 μL containing the compounds assessed, acetylthiocholine iodide and 5 μL tissue homogenate was incubated for 8 min. The reaction was then terminated by adding 50 μL 3% (w/v) sodium dodecyl sulphate followed by 50 μL 0.2% (w/v) 5,5′-dithio-bis(2-nitrobenzoic) acid to produce the yellow anion of 5-thio-2-nitro-benzoic-acid. The extent of the color production was measured spectrophotometrically at 405 nm using Multiskan Ex (Thermo Electron Corporation). […] Results are expressed as the mean ± SD and each experiment was repeated three times.

HT-29 cells = assay: MTT cell viability assay, HT-29; format: cell-based; details: Homo sapiens, HT-29, 10 µM, 48 h, read-out: Cell growth % at 10 µM, HT-29
Procedure: as §1, §2, §3

DU-145 cells = assay: MTT cell viability assay, DU-145; format: cell-based; details: Homo sapiens, DU-145, 48 h, read-out: Cell growth % at 10 µM, DU-145
Procedure: as §1, §2, §3

SMILES	viability at 10 µM (MDA-MB-231 cells)	viability at 10 µM (HTB-54 cells)	inhibition at 1 µM (AChE)	viability at 10 µM (HT-29 cells)	viability at 10 µM (DU-145 cells)
C=CC[Se]C(=O)C12CC3CC(CC(C3)C1)C2 [Compound 1a, Se-allyl adamantane-1-carboselenoate]	92.6 ± 12.7%	72.1 ± 8.1%	19.3 ± 4.1%	91 ± 3.6%	> 100%
C#CC[Se]C(=O)C12CC3CC(CC(C3)C1)C2 [Compound 1b, Se-prop-2-ynyl adamantane-1-carboselenoate]	71.3 ± 8%	86 ± 11.6%	18 ± 7.9%	87.9 ± 12.1%	62.7 ± 7.7%
C=CC[Se]C(=O)c1ccccc1 [Compound 2a, Se-allyl benzoselenoate]	37.9 ± 3.6%	43.2 ± 9%	22.6 ± 1.6%	85.3 ± 19.4%	65.6 ± 5.6%
C#CC[Se]C(=O)c1ccccc1 [Compound 2b, Se-prop-2-ynyl benzoselenoate]	79.3 ± 18.7%	78.3 ± 11.4%	26.9 ± 7.3%	78.3 ± 6.9%	72.9 ± 13.6%
C=CC[Se]C(=O)c1ccccc1Cl [Compound 3a, Se-allyl 2-chlorobenzoselenoate]	29.7 ± 6.4%	37.5 ± 7.3%	21.5 ± 7.5%	63.2 ± 16.9%	39.8 ± 6.3%
C#CC[Se]C(=O)c1ccccc1Cl [Compound 3b, Se-prop-2-ynyl 2-chlorobenzoselenoate]	93.2 ± 10.2%	> 100%	23.7 ± 9%	81.8 ± 15.2%	41.6 ± 3.5%
C=CC[Se]C(=O)c1ccc2c(c1)OCO2 [Compound 4a, Se-allyl benzodioxole-5-carboselenoate]	97.3 ± 10.4%	67.6 ± 15.1%	2.5 ± 9.3%	33.6 ± 12.6%	> 100%
C=CC[Se]C(=O)/C=C/c1ccccc1 [Compound 5a, Se-allyl 3-phenylprop-2E-eneselenoate]	91.1 ± 16.8%	46.1 ± 5.6%	8.7 ± 4.9%	87.6 ± 7.9%	83.3 ± 7.8%
C#CC[Se]C(=O)/C=C/c1ccccc1 [Compound 5b, Se-prop-2-ynyl 3-phenylprop-2E-eneselenoate]	64.8 ± 14.7%	79.8 ± 7.7%	26 ± 3.7%	80.8 ± 8.5%	70.5 ± 11.5%
C=CC[Se]C(=O)CCc1ccccc1 [Compound 6a, Se-allyl 3-phenylpropaneselenoate]	35.9 ± 2.6%	36.3 ± 7%	18.7 ± 12.4%	63.7 ± 12.3%	26.9 ± 4.4%
C#CC[Se]C(=O)CCc1ccccc1 [Compound 6b, Se-prop-2-ynyl 3-phenylpropaneselenoate]	78.9 ± 8.4%	83.4 ± 7.7%	24.5 ± 6.7%		76.6 ± 12%
C=CC[Se]C(=O)c1cccnc1 [Compound 7a, Se-allyl pyridine-3-carboselenoate]	35.3 ± 6.4%	22 ± 5.1%	13.6 ± 5.5%	64.3 ± 14.1%	51.7 ± 9.8%
C#CC[Se]C(=O)c1cccnc1 [Compound 7b, Se-prop-2-ynyl pyridine-3-carboselenoate]	91.3 ± 8.3%	91.4 ± 6.6%	24.9 ± 2.2%	> 100%	54.6 ± 4.5%
